Format in all cases: cell-based, human
For test [1], the system named is HCT116 cells. Nature of the test: Colony formation assay. The conditions noted are these: 2 and 4 μM, 12 h incubation, colonies 10–14 days, vs vehicle control. How it is done: In this assay, HCT116 cells were seeded in 6 well plates at a density of 250,000 cells/plate and allowed to grow overnight. Compounds 15j and 15k (0, 2 or 4 μM) were added the following day. After 12 h of incubation, the medium was discarded and cells were trypsinized with 0.25% trypsin, 2.21 mM EDTA, 1X, harvested, counted and reseeded in 6 well plates at a low density (500 cell/well). The cells were allowed to form colonies for 10–14 days at 37°C, with the medium being changed every other day. Subsequently, methanol was used to fix the colonies formed in each plate, followed by dyeing the colonies with 0.1% crystal violet dye for 30 min. Finally, colonies were viewed and counted under an EVOS microscope (Themo Fisher Scientific, Wayne, MI, USA). The colony formation rate equation was applied for each compound: Colony formation rate = number of colonies/number of seeded cells × 100 %.

In test [2] the test system is HCT116 cells. Put plainly: MitoTracker Red / Alexa Fluor 488 annexin V flow cytometry. The conditions noted are these: overnight. The method, then: The mitochondrial membrane potential and the induction of apoptosis were analyzed in HCT116 cells using the MitoTracker Red and Alexa Fluor 488 annexin V kits for flow cytometry as previously described (Karthikeyan et al., [2015]). Six well plates were used for seeding of cells, followed by incubation with 15j or 15k (0, 1, 2, and 4μM) for overnight. Subsequently, the cells were harvested, counted and 4 μl of a 10μM working solution of MitoTracker Red was added to each 1 ml cell suspension, followed by 30 min of incubation at 37°C with 5% CO2. The cells were resuspended in 100 μl of annexin binding buffer and 5 μl of Alexa Fluor 488 annexin V was added to the suspension and incubated for 15 min. Finally, 400 μl of annexin-binding buffer was added and the stained cells were detected by flow cytometry. The fluorescence emission at 530 and 585 nm was measured using a BD Accuri™ C6 flow cytometer and analyzed using FCS express 5 plus De Novo software.
On the technique in general: A flow cytometer gives signals particle by particle.

In another test the test system is E-cadherin. Put plainly: Immunofluorescence staining in HCT116 cells. To be noted: 2 μM p < 0.05, 4 μM p < 0.001, 24 h. How it is done: (§1) HCT116 cells were used to ascertain the action of compound 15k on α-tubulin, E-cadherin and β-catenin. The cells were seeded on to culture glass covers inserted in 6 well plates. The compound was added at 0, 2, and 4μM and incubated with the cells overnight at 37°C. Paraformaldehyde (4%) was used for cell fixation, followed by permiabilization with 0.3% triton 100× in PBS for 25 min. The cells were blocked with 3% BSA in PBS for 30 min. The α-tubulin, E-cadherin, or β-catenin rabbit antibodies in the correct dilution were added, followed by fluorescent anti-rabbit secondary antibody in the same manner. The nuclei were stained with the nuclear dye, DAPI, for 15 min. The EVOS cell imaging system was used to detect the fluorescence from each slide.

The next test relates to α-tubulin. Put plainly: Immunofluorescence staining in HCT116 cells. The conditions noted are these: 2 or 4 μM, overnight, p < 0.001 vs control. How it is done: as §1
Test [3] has as its system β-catenin. Put plainly: Immunofluorescence staining in HCT116 cells. The conditions noted are these: 2 and 4 μM, p < 0.01 vs vehicle. How it is done:
as §1

A further test relates to LOVO cells. Put plainly: Wound healing assay. To be noted: 2 and 4 μM, 24 h and 48 h, vs vehicle. The method, then:
In brief, the metastatic CRC cells (LOVO) were seeded in 6 well plates and allowed to grow as a monolayer until they reached 100% confluence. Upon confluence, 200 μl sterile tips were used to create a wound by gentle scratching of the complete cell monolayer. Sterile PBS was used to wash the cells several times to remove any floating cells. Different concentrations of the test compound were prepared in the culture media and added immediately after wound formation. The closure of the wound was observed by taking pictures at different time points by an EVOS microscope. Finally, the area of the wounds at different time points was calculated using Image J software (NIH, Bethesda, Maryland, USA).

The test system of the next test is HCT116 cell. Put plainly: Cell morphology (EMT reversal). The conditions noted are these: HCT116 after incubation with 15k. How it is done:
The aberrant, over-activation of embryonic signaling pathways, including Wnt/β-catenin/epithelial-mesenchymal transition (EMT), is involved in the development, progression, metastasis, and resistance of CRC (Du and Shim, [2016]). […] To test this hypothesis, the morphology of HCT116 cell was observed following incubation with 15k. […] We then determined the efficacy of compound 15k on the expression of (1) β-catenin; (2) E-cadherin, and (3) N-cadherin in CRC cells.

Test [4] concerns β-catenin. Put plainly: Western blot in HCT116 cells (nuclear). The conditions noted are these: 4 μM, p < 0.001 vs control. The method, then:
HCT116 cells were lysed to obtain cytoplasmic and nuclear protein fractions, according to the protocol used in previous publications (Alhadidi and Shah, [2017]). Briefly, the cells were seeded in and incubated with 15k for overnight at 4μM. The cells were washed using ice-cold PBS and scraped using a cell scraper and collected in 15ml tubes. The cells were centrifuged and the PBS was discarded and replaced with 400 μl of buffer A (10 mM HEPES, pH 7.9, 0.1 mM EDTA, 0.1 mM EGTA, 10 mM KCl, 1 mM dithiothreitol, and 0.5 mM phenylmethylsulfonyl fluoride) in each tube. The cells were allowed to swell under in the buffer for 15 min on ice. Subsequently, 0.1% Nonidet P-40 was added to each suspension for 1 min to disturb the plasma membrane. The nuclei were precipitated by centrifugation at 13,000 rpm for 1 min at 4°C. The cytoplasmic proteins were collected in the supernatant and stored at −80°C. Two hundred μl of Buffer B (20 mM HEPES, pH 7.9, 1 mM EDTA, 1 mM EGTA, 400 mM NaCl, 1 mM dithiothreitol, and 1 mM phenylmethylsulfonyl fluoride) was added to the pellets and left for 30 min on ice with periodic mixing. […] The bicinchoninic acid (BCA) quantification assay was used to determine the concentration of protein in the cell extracts. […] Finally, proteins were quantified using the image J software. Data were calculated as ratios to β-actin.
Background: Immunoblotting shows a protein as a band on a membrane.

Structures are written as SMILES.

For the compound `O=C(/C=C/c1cccc(OCc2ccccc2)c1)c1ccc(O)cc1` [Compound 15k], in the test on HCT116 cells [1], the colony formation rate entry was “decreased significantly”. For the same compound, in the test with HCT116 cells [2] (2 μM, vehicle 2.83%), the “cells undergoing apoptosis, quadrant II (Q2)” value was 47%. Further, in the test with HCT116 cells [2] (Homo sapiens, HCT-116, 2 μM, vehicle 90.66%, read-out: viable cells in quadrant I (Q1)), the viability at 2 µM is 35.8%. For the same compound, the viability at 4 µM in the test on HCT116 cells [2] (Homo sapiens, HCT-116, 4 μM, vehicle 90.66%, read-out: viable cells in quadrant I (Q1)) worked out at 36%. Moreover, the “E-cadherin expression (immunostaining)” value in the test with E-cadherin is “significantly increased”. Besides, the α-tubulin green fluorescence result in the test on α-tubulin is “significant reduction”. In the test with β-catenin [3], the “level of β-catenin available for nuclear translocation (immunostaining)” value was “significant decrease”. Further, the “cell migration, wound closure” value in the test with LOVO cells is given as “migrated significantly slower”. Also, in the test on HCT116 cell, the cell morphology entry is “significantly changed the morphology of the cells from mesenchymal to a more epithelial-like appearance”. Besides, the “nuclear β-catenin full-length protein (p1 and p2)” value with β-catenin [4] is listed as “induced the cleavage of the full-length protein”.

The record behind these values is PMC5974752, “Bax/Tubulin/Epithelial-Mesenchymal Pathways Determine the Efficacy of Silybin Analog HM015k in Colorectal Cancer Cell Growth and Metastasis” (Frontiers in Pharmacology, 2018).
